pIC50: −log10 of the molar value. Where two headings read alike, the source gives them in different places.
Key:
[1] = test system: SK-MEL-28 and SK-MEL-5 cells (pERK, pMET, AKT); experiment: HGF-stimulated melanoma cell signal transduction assay; type: cell-based; details: 50 nM
Method: SK-MEL-5 and SK-MEL-28 cells were added to 12-well plates at 450,000 and 250,000 cells/well, respectively, and incubated overnight. […] Cells were then stimulated with 50 ng/mL HGF for 1 hr. Antibodies were obtained from Cell Signaling Technology.

[2] = test system: SK-MEL-28 cells; experiment: HGF-stimulated melanoma proliferation cell assay; type: cell-based; details: Homo sapiens, 72 h
Method: SK-MEL-28 cells were added to 96-well plates (2,500 cells/well). Effects on cell proliferation were assessed by incubation of SK-MEL-28 cells in complete media, media containing 50 ng/mL HGF, or media mixed 1:1 with MRC-5 fibroblast-conditioned media. Plates were incubated for 72 h.

[3] = test system: PyMT mammary tumor; experiment: PyMT syngeneic breast cancer model; type: in vivo, mice
Method: Female FVB/NJ mice were implanted in the 4th mammary fat pad with one million cells that had been dissociated from tumor fragments from MMTV-PyMT donor mice. […] Mice (n=10/group) were dosed for three weeks, then, primary tumor and lungs were collected and fixed. Lung sections were stained with H&E at Premier Laboratory. Lung metastases (≧10 cells) were counted manually via microscopy. Data were analyzed via one-way analysis of variance (ANOVA), with post-hoc analysis by the method of Holm-Sidak. For analysis of TIE2-positive macrophages, tumor sections were stained with TIE2 and CD31 antibodies at Premier Laboratory. The density of TIE2-positive cells at the stroma/tumor boundary in each tumor was scored using 0=no staining, 1=low, 2=medium, and 3=high.

[4] = test system: U87-MG xenograft glioma; experiment: Orthotopic U87-MG xenograft efficacy model (BLI); type: in vivo, mice; details: after two weeks of treatment; bevacizumab 5 mg/kg IP every three days; Compound 1 10 mg/kg BID
Method: Protocol for in vivo xenograft efficacy study. […] Treatments began on Day 31.
The tumor cells were injected intracerebroventricularly (ICV) and tumor growth was monitored in vivo by quantitation of luciferase-mediated BLI.

[5] = test system: GSC17 glioblastoma cells; experiment: GSC17 glioma stem cell patient-derived xenograft model (tumor volume, immunohistochemistry); type: in vivo, mice
Method: (§1) For the in vivo experiments, 4- to 6-week-old female nude mice that were strictly inbred at The University of Texas MD Anderson Cancer Center and maintained in the MD Anderson Veterinary in accordance with institutional guidelines were used. For the in vivo experiments, GSC11 (5×10^5) or GSC17 (5×10^4) glioblastoma cells were implanted intracranially into nude mice. […] Control mice for these cohorts were treated with phosphate-buffered saline by i.p. injection and/or with 0.4% HPMC vehicle by oral gavage. One cohort of 10 mice per group were treated continuously and followed for survival. A separate cohort of 9 mice per group were treated continuously until the designated time point, and the tumors from these mice were extracted at 3, 4, 5 weeks in GSC11 xenograft mice model and at 3.5, 4.5, 5.5 weeks in GSC17 xenograft mice model after the start of treatment.
(§2) When the mice treated for the designated time period developed signs and symptoms of advanced tumors, they were euthanized, and their brains were removed, fixed in 4% formaldehyde for 24 hours, and embedded in paraffin. The tissues were then sectioned serially (4 μm) and stained with hematoxylin and eosin (Sigma-Aldrich). Tumor formation and phenotype were determined by histologic analysis of the hematoxylin- and eosin-stained sections. The tumor volume, greatest longitudinal diameter (length), and greatest transverse diameter (width) were measured using an external caliper and Adobe Illustrator software. The tumor volumes were calculated by the following formula: volume=½(length×width^2).
(§3) For immunohistochemical analyses, the tissue sections were deparaffinized and subjected to graded rehydration. After blocking the tissue in 5% horse and goat serum and antigen retrieval solution (citrate buffer, pH 6.0), we incubated the tissue sections overnight at 4° C. with primary antibodies against Factor VIII (1:500; A0082, Dako) to assess microvessel formation, vimentin (1:100; M0725, Dako) to assess mesenchymal marker expression, F4/80 (1:50; 123102, BioLegend) to assess monocyte infiltration, nestin (1:300; Ab6142, Abcam) to assess glioma stem cell marker expression, HGF (1:200; LS-B4657, LSBio), and TIE2 (1:50; Santa Cruz Biotechnology) to assess TIE2-expressing monocyte infiltration. Texas red fluorescein isothiocyanate-conjugated secondary antibodies or anti-rat immunoglobulin G antibodies (Invitrogen) were used for 1 hour at room temperature.
(§4) All statistical analyses were conducted with the GraphPad 6 (InStat) software for Windows 7. Survival analysis was conducted using the Kaplan-Meier method, and differences in survival between treatment groups were assessed using the log-rank test. All other comparisons were performed using an unpaired two-tailed Student t-test. Summary statistics for continuous data are expressed as the mean±standard error of the mean. P values less than 0.05 were considered statistically significant. The nestin staining was assessed using the Image-Pro Plus system version 7.0 (Media Cybernetics) in ×10 fields of at least three tumor samples per group with three to four different sections per tumor sample.

[6] = test system: GSC11 glioblastoma cells; experiment: GSC11 glioma stem cell patient-derived xenograft model (tumor volume, immunohistochemistry); type: in vivo, mice
Method: as §1, §2, §3, §4

[7] = test system: circulating TIE2+ and TIE2+/MET+ monocytes; experiment: Flow cytometry of circulating TIE2/MET-expressing monocytes from U87-MG xenograft model; type: in vivo, mice; details: single agents; after five weeks of treatment
Method: Flow cytometry of circulating TIE2/MET-expressing monocytes from U87-MG xenograft model. Peripheral blood samples were fixed using Lyse/Fix buffer (BD Biosciences, San Jose, Calif.). BD Fc Block was added and cells were stained with CD11b-PECy7 and Gr1-APC antibodies (BD Pharmingen), and TIE2-PE and MET-FITC antibodies (eBioscience) or isotype controls. Data was collected on an Accuri C6 cytometer. Monocytes were gated using side and forward scatter.
To monitor these monocytes in the U87 survival model, peripheral monocytes were gated on CD11b+/Grl-surface markers and TIE2^+ and/or TIE2^+/MET^+ cells quantitated. In the U87 glioma survival study, we observed both of these TIE2^+ expressing monocyte populations in the circulation of vehicle-treated mice after five weeks of treatment. […] The lowered population of both of these TIE2^+ monocyte populations in the combination cohort was consistent with greater survival benefit (FIG. 6).

Compound: CC(C)(C)c1nc(-c2cccc(NS(=O)(=O)c3c(F)cccc3F)c2F)c(-c2ccnc(N)n2)s1 [dabrafenib]
- Phosphorylation of ERK upon HGF stimulation ([1]; 50 ng/mL HGF 1 hr): ERK remained fully phosphorylated
- Phosphorylation of ERK ([1]; no HGF): inhibited phosphorylation
- pIC50 ([2]; 50 ng/mL HGF or MRC-5 fibroblast-conditioned media, read-out: IC50, proliferation of SK-MEL-28 with HGF or fibroblast-conditioned media): < 5.00
- pIC50 ([2]; complete media, read-out: IC50, proliferation of SK-MEL 28): 7.97

Compound: CC(=O)O[C@H]1C(=O)[C@@]2(C)[C@H]([C@H](OC(=O)c3ccccc3)[C@]3(O)C[C@H](OC(=O)[C@H](O)[C@@H](NC(=O)c4ccccc4)c4ccccc4)C(C)=C1C3(C)C)[C@]1(OC(C)=O)CO[C@@H]1C[C@@H]2O [paclitaxel, reference compound]
- Tumor growth inhibition (TGI) ([3]; after dosing for three weeks, paclitaxel 10 mg/kg i.v. every 5 days, Compound 1 15 mg/kg twice daily): 42%
- Reduction of TIE2 score (stromal density of TIE2+ cells) ([3]; same dosing): did not reduce
- Reduction of lung metastases compared to controls ([3]; same dosing): 64%

Compound: bevacizumab [reference compound]
- Decrease in BLI signal compared to vehicle [4]: 63%
- Tumor volume at 3.5 weeks ([5]; GSC17, bevacizumab 10 mg/kg i.p. twice per week, Compound 1 10 mg/kg oral twice daily): 0.4±0.4 mm^3
- Tumor volume at 4.5 weeks ([5]; GSC17, same dosing): 0.05±0.03 mm^3
- Tumor volume at 5.5 weeks ([5]; GSC17, same dosing): 9.6±4.6 mm^3
- Factor VIII-positive area ([5]; GSC17 xenograft mouse model): 3.0±0.3%
- Nestin-positive area ([5]; GSC17 xenograft mouse model): 20.6±2.7%
- Mesenchymal tumor marker vimentin / EMT (immunohistochemistry) ([5]; GSC-17 glioma model): therapy-induced increase in EMT
- Tumor infiltration of TIE2-positive/F4/80-positive cells ([5]; GSC-17 glioma xenograft model): increased
- Tumor volume at 3 weeks ([6]; GSC11, bevacizumab 10 mg/kg i.p. twice per week, Compound 1 10 mg/kg oral twice daily): 14.3±6.9 mm^3
- Tumor volume at 4 weeks ([6]; GSC11, same dosing): 30.7±4.2 mm^3
- Tumor volume at 5 weeks ([6]; GSC11, same dosing): 46.6±4.5 mm^3
- Factor VIII-positive area ([6]; GSC11 model): 3.3±1.1%
- Nestin-positive area ([6]; GSC11 xenograft mouse model): 59.8±6.0%
- Mesenchymal tumor marker vimentin / EMT (immunohistochemistry) ([6]; GSC-11 glioma model): therapy-induced increase in EMT
- Macrophage infiltration into tumor (F4/80 IHC staining) ([6]; GSC-11 glioma xenograft model): stimulating the influx of tumor-promoting macrophages
- Numbers of circulating TIE2+ and TIE2+/MET+ monocyte populations [7]: did not alter
